Assay results from US6495598B1, “Perfusate preparation for ophthalmic operation” (Ophtecs Corporation, priority 2001, dated 2002).
Entries after “also recorded” stand apart in the source; their conditions may differ. Where two headings read alike, the source gives them in different places.

Columns and labels:
[1] = tested on: incubated bovine corneal endothelial cell; test: cell-activating effect, MTT assay-based method; conditions: for cell-activating effect (absorbance at 450 nm): 5 and 20 mM, 48 hrs incubation, vs control containing no HBA
Procedure: The D-form, D,L-form and L-form of D-3-HBA were dissolved in the DULBECCO's MEM salt incubation media at concentrations of 0 (control), 5 and 20 mM, respectively, and the resulting solutions were injected into a 24-well collagen-coated plate implanted (4×10^4 cell/ml) with a pre-incubated bovine corneal endothelial cell and then incubated for 48 hrs. After the incubation, 50 μl of cell-counting kit (product of DOJIN KAGAKU Ltd.) was added to each well to develop colors, and absorbance at 450 nm was measured by using each supernatant.

[2] = tested on: cultured bovine corneal endothelial cells damaged by ultrasound
Procedure: As an invasive model assuming a phacoemulsification and aspiration method used as a surgical method of cataract, incubated bovine corneal endothelial cells damaged by ultrasound were subjected to an experiment for examining the recovery of their barrier function.
Using the incubated bovine corneal endothelial cells damaged by ultrasound, the barrier function-recovering effects of D-3-HBA and oxyglutathione were subjected to an experiment in accordance with the following procedure.
The monolayer of cultured bovine corneal endothelial cells on a filter, which had been damaged by sonication to the cells at 92 W/cm^2 three course at intervals of 0.1 sec, was incubated in DULBECCO's MEM medium (with 10% of embryonic bovine serum) containing 20 mM of D-3-HBA or 0.3 mM of oxyglutathione.

[3] = tested on: corneas of Dutch rabbits; conditions: 90 minutes irrigation
Procedure: Irrigating solution No.1 (Example) and solutions No.3, No.4 and No.5 (Comparative Examples) for testing were prepared by dissolving the predetermined amounts of the components listed in Table 2 and, finally, D-3-HBA so as to adjust the total amounts of the aqueous solutions to be 1 liter; adjusting the pHs of the solutions by diluted hydrochloric acid, and subjecting the solutions to aseptic treatment.
Dutch rabbits (male and female weighing 1.9 to 2.9 kg) were used for an experiment. Experiments were performed in rabbit, anesthetized with intramuscular xylazine hydrochloride (“celactal®”, a product Bayer AG.,) and ketamine hydrochloride (“ketalar®”, a product of Sankyo Co. Ltd,.) through intramuscular injection, a 3.2-mm-wide incision was made corneas limbusing a scalpel for ocular surgery. Subsequently, 18-gauge injection needles having a rounded tip were inserted in the anterior chambers through the incisions, and the irrigating solutions were allowed to irrigate at a flow rate of 10 ml/min for 90 minutes. After the irrigation, the incisions were sewed up once by a sewing needle with a suture. The corneal thicknesses were measured by the ultrasonic pachymeter used in Example 4 before and during the perfusion (at intervals of 30 minutes).

Compound: CC(O)CC(=O)O (racemic) [D,L-form, reference compound]
- cell-activating effect (absorbance at 450 nm) [1]: did not show a significant difference

Compound: C[C@H](O)CC(=O)O [L-form, reference compound]
- cell-activating effect (absorbance at 450 nm) [1]: hardly obtained; also recorded: did not show a significant difference in activity at any concentrations

Compound: C[C@@H](O)CC(=O)[O-].[Na+] [Solution D-3-HBA, sodium D-3-hydroxy butyrate]
- recovery of the barrier function ([2]; 20 mM in MEM medium after sonication damage): quick recovery effect
- electrical resistance value of the endothelial layer ([2]; 20 mM in MEM medium, vs MEM with 0.3 mM oxyglutathione and MEM alone): closer to the value before the irradiation of ultrasound at any observation time
- cell-activating effect (absorbance at 450 nm) [1]: the most active at any concentrations
- cell-activating effect (absorbance at 450 nm) ([1]; listed as D-form): activity is obtained
- optimum concentration for cell-activating effect ([1]; tested at 5 and 20 mM, 48 hrs): 20 mM
- effect of keeping the change in the corneal thickness small ([3]; bicarbonate ions added to the irrigating solution (FIG. 5)): significant
- effect of keeping the change in the corneal thickness small ([3]; bicarbonate ions not added to the irrigating solution (FIG. 6)): not significant
